Results as given in ChEMBL document CHEMBL2407043, “Hydantoin based inhibitors of MMP13--discovery of AZD6605” (Bioorg Med Chem Lett, 2013).
Converted amounts (≈) assume the structure as drawn.

Legend:
[1] = Thermodynamic solubility of the compound in phosphate buffer at pH 7.4 at 25 degC after 24 hrs; settings: read-out: Therm_solubility
in vitro = settings: human, liver microsomes
Cytochrome P450 3A4 = Cytochrome P450 3A4 (Homo sapiens, UniProt P08684); experiment: Inhibition of human CYP3A4; assay type: ADME
Sequence of Cytochrome P450 3A4 (P08684 whole entry): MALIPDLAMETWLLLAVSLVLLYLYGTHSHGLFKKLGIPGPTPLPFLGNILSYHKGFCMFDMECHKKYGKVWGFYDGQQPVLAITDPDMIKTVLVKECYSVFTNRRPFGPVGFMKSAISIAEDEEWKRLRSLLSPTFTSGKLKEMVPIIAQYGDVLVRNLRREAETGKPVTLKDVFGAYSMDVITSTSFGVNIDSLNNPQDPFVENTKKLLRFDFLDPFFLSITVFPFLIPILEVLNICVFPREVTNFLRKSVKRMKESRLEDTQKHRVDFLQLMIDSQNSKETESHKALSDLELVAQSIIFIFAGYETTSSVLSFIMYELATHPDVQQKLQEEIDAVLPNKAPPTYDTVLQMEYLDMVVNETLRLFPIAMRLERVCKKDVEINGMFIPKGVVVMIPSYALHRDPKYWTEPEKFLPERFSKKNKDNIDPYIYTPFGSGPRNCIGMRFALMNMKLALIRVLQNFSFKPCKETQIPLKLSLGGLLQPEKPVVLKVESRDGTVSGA

[2] = Intrinsic clearance in dog liver microsomes; assay type: ADME, Canis lupus familiaris, Microsome; settings: read-out: CLH
[3] = Intrinsic clearance in rat liver microsomes; assay type: ADME, Microsome; settings: read-out: CLH
Cytochrome P450 2D6 = Cytochrome P450 2D6 (Homo sapiens, UniProt P10635); experiment: Inhibition of human CYP2D6; assay type: ADME
Sequence of Cytochrome P450 2D6 (P10635 whole entry): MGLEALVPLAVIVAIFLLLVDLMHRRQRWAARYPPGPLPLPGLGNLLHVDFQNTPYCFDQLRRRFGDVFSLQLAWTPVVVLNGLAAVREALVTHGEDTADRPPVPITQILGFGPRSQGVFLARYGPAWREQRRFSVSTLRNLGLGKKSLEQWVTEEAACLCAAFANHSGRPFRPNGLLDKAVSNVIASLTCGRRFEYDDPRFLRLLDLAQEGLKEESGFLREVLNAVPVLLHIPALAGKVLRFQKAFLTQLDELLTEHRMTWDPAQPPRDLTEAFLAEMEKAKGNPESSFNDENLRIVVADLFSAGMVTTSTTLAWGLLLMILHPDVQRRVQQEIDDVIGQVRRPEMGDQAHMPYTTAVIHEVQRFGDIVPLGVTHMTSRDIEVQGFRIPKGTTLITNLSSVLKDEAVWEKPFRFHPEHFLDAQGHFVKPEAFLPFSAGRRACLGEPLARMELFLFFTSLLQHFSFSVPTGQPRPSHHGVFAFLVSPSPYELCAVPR

Cytochrome P450 2C9 = Cytochrome P450 2C9 (Homo sapiens, UniProt P11712); experiment: Inhibition of human CYP2C9; assay type: ADME
Sequence of Cytochrome P450 2C9 (P11712 whole entry): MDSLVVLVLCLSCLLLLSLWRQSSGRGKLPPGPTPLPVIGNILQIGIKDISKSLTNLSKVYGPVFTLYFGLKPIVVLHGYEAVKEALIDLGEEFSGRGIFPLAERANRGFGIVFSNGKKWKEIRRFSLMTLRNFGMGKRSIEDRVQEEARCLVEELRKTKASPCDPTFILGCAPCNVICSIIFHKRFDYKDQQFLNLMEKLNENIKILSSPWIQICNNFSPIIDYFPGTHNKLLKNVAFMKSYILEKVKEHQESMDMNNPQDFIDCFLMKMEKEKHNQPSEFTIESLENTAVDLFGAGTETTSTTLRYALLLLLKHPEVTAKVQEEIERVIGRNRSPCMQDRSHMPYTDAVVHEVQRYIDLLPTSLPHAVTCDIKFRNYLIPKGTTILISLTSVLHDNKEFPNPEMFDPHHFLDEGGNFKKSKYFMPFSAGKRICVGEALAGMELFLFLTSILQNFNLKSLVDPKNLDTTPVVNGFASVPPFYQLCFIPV

Cytochrome P450 2C19 = Cytochrome P450 2C19 (Homo sapiens, UniProt P33261); experiment: Inhibition of human CYP2C19; assay type: ADME
Sequence of Cytochrome P450 2C19 (P33261 whole entry): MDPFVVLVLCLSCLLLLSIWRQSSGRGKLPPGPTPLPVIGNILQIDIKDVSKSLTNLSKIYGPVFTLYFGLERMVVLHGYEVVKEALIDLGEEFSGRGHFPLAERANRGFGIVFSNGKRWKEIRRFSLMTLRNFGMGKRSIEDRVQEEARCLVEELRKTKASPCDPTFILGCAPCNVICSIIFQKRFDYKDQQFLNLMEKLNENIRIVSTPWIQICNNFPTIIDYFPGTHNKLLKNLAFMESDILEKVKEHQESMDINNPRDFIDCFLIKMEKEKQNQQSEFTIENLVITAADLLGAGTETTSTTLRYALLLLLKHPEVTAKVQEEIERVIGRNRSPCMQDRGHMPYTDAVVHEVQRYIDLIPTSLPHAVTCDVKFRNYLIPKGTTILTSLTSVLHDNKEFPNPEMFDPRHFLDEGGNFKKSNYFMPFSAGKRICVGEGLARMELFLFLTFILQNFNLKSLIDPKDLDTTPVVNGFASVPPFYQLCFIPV

Cytochrome P450 1A2 = target: T1, Cytochrome P450 1A2 (Homo sapiens, UniProt P05177); experiment: Inhibition of human CYP1A2; assay type: ADME
T1 sequence (P05177 whole entry): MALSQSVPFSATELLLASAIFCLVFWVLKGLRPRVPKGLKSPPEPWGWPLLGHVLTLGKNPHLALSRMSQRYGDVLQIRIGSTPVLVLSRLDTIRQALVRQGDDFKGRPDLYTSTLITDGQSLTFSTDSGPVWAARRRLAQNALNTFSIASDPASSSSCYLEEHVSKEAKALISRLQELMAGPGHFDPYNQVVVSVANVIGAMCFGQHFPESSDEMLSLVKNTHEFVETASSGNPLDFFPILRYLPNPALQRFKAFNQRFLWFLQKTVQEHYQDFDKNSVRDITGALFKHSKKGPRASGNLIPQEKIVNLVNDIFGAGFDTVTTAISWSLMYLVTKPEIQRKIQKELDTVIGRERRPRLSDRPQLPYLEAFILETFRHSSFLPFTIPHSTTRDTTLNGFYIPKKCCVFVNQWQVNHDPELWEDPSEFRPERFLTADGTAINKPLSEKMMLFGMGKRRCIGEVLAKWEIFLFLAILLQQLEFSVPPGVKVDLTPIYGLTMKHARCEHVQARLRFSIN

[4] = target: Macrophage metalloelastase (Homo sapiens, UniProt P39900); experiment: Inhibition of MMP-12 (unknown origin) by fluorescence assay
Sequence of Macrophage metalloelastase (P39900 whole entry): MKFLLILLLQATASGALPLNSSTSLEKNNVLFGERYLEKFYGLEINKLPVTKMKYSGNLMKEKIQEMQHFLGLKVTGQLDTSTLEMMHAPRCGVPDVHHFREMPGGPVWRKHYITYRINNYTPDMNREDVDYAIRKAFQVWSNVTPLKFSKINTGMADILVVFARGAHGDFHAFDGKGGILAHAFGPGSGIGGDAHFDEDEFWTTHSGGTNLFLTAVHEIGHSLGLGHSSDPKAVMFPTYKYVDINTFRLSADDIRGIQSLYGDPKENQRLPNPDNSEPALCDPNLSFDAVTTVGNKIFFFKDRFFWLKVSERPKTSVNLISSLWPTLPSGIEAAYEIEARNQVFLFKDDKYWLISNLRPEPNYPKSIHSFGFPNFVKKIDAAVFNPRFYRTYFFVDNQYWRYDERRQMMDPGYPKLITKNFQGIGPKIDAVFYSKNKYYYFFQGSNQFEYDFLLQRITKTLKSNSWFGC

[5] = Elimination half life in dog; assay type: ADME, organism-based, Canis lupus familiaris; settings: in vivo, read-out: beta t1/2 (converted)
[6] = Elimination half life in rat; assay type: ADME, organism-based; settings: in vivo, read-out: beta t1/2 (converted)
[7] = Elimination half life in mouse; assay type: ADME, organism-based; settings: in vivo, read-out: beta t1/2 (converted)
[8] = Volume of distribution at steady state in rat at 2 mg/kg, iv and 5 mg/kg, po; assay type: ADME, organism-based; settings: in vivo, read-out: Vdss
[9] = Clearance in rat at 2 mg/kg, iv; assay type: ADME, organism-based; design: dose 2 mg/kg, route intravenous; settings: in vivo
[10] = Half life in rat; assay type: ADME, organism-based; settings: in vivo
[11] = Oral bioavailability in rat at 3 to 10 mg/kg; assay type: ADME, organism-based; settings: in vivo
[12] = target: Matrix metalloproteinase-14 (Homo sapiens, UniProt P50281)

C[C@]1(CS(=O)(=O)N2CCC(Oc3ccc(OCc4ccncc4)cc3)CC2)NC(=O)NC1=O
solubility thermodynamic at 24 h [1]: 130 µM (≈ 61.7 µg/mL)

CCc1cc(COc2cnc(N3CCN(S(=O)(=O)C[C@@]4(C)NC(=O)NC4=O)CC3)nc2)on1
microsomal CLint (in vitro): < 2 µL/min/mg

O=CN(O)[C@@H](CCCc1ncccn1)CS(=O)(=O)N1CCN(c2ccc(C(F)(F)F)cn2)CC1
IC50 (Cytochrome P450 3A4): 1 µM

C[C@]1(CS(=O)(=O)N2CCC(Oc3ccc(OCc4cccc(C#N)c4)cc3)CC2)NC(=O)NC1=O
solubility thermodynamic at 24 h [1]: 4.4 µM (≈ 2.19 µg/mL)

C[C@]1(CS(=O)(=O)N2CCC(Oc3ccc(C(F)(F)F)cc3)CC2)NC(=O)NC1=O
microsomal CLint [2]: < 10 µL/min/mg | microsomal CLint [3]: < 10 µL/min/mg | IC50 (Cytochrome P450 3A4): > 40 µM | IC50 (Cytochrome P450 2D6): > 40 µM | IC50 (Cytochrome P450 2C9): > 40 µM | IC50 (Cytochrome P450 2C19): > 40 µM | IC50 (Cytochrome P450 1A2): > 40 µM | IC50 [4]: 0.0059 µM | microsomal CLint (in vitro): < 10 µL/min/mg | solubility thermodynamic at 24 h [1]: 23 µM (≈ 10 µg/mL)

Cc1cc(COc2cnc(N3CCN(S(=O)(=O)C[C@@]4(C)NC(=O)NC4=O)CC3)nc2)n(C)n1
solubility thermodynamic at 24 h [1]: 32 µM (≈ 15.3 µg/mL)

C[C@]1(CS(=O)(=O)N2CCN(c3ncc(OCc4cccc(C#N)c4)cn3)CC2)NC(=O)NC1=O
half-life [5]: 5.4 h | half-life [6]: 7.5 h | half-life [7]: 5.8 h | Vd [8]: 0.5 L/kg | clearance [9]: 1.09 L/h/kg | half-life [10]: 7.5 h | bioavailability [11]: 51% | microsomal CLint (in vitro): < 2 µL/min/mg | solubility thermodynamic at 24 h [1]: 66 µM (≈ 32 µg/mL)

C[C@]1(CS(=O)(=O)N2CCC(Oc3ccc(Cl)cc3)CC2)NC(=O)NC1=O
IC50 [4]: 0.0089 µM | solubility thermodynamic at 24 h [1]: 12 µM (≈ 4.82 µg/mL)

C[C@]1(CS(=O)(=O)N2CCC(Oc3ccc(OCc4cccnc4)cc3)CC2)NC(=O)NC1=O
solubility thermodynamic at 24 h [1]: 8.4 µM (≈ 3.99 µg/mL)

C[C@]1(CS(=O)(=O)N2CCN(c3ncc(OCc4cc(C(F)(F)F)no4)cn3)CC2)NC(=O)NC1=O
Vd [8]: 0.5 L/kg | clearance [9]: 0.564 L/h/kg | half-life [10]: 3.3 h | solubility thermodynamic at 24 h [1]: 3.1 µM (≈ 1.61 µg/mL)

C[C@]1(CS(=O)(=O)N2CCN(c3ncc(OCc4ccc(F)cc4)cn3)CC2)NC(=O)NC1=O
Vd [8]: 0.5 L/kg | clearance [9]: 0.288 L/h/kg | half-life [10]: 1.9 h | microsomal CLint (in vitro): 16 µL/min/mg | solubility thermodynamic at 24 h [1]: 16 µM (≈ 7.66 µg/mL)

C[C@]1(CS(=O)(=O)N2CCC(Oc3ccc(OCc4cscn4)cc3)CC2)NC(=O)NC1=O
IC50 [12]: 4.09 µM | solubility thermodynamic at 24 h [1]: 87 µM (≈ 41.8 µg/mL)

C[C@]1(CS(=O)(=O)N2CCC(Oc3ccc(OCc4cnsn4)cc3)CC2)NC(=O)NC1=O
IC50 [12]: 0.35 µM | solubility thermodynamic at 24 h [1]: 28 µM (≈ 13.5 µg/mL)

C[C@]1(CS(=O)(=O)N2CCC(Oc3ccc(OCC(F)(F)F)cc3)CC2)NC(=O)NC1=O
IC50 [12]: 1.95 µM | solubility thermodynamic at 24 h [1]: 34 µM (≈ 15.8 µg/mL)

C[C@]1(CS(=O)(=O)N2CCC(Oc3ccc(OCC(F)(F)C(F)F)cc3)CC2)NC(=O)NC1=O
IC50 [12]: 0.553 µM | solubility thermodynamic at 24 h [1]: 32 µM (≈ 15.9 µg/mL)

C[C@]1(CS(=O)(=O)N2CCC(Oc3ccc(OCc4ncccn4)cc3)CC2)NC(=O)NC1=O
solubility thermodynamic at 24 h [1]: 560 µM (≈ 266 µg/mL)

C[C@]1(CS(=O)(=O)N2CCC(Oc3ccc(OC(F)(F)C(F)(F)F)cc3)CC2)NC(=O)NC1=O
IC50 [12]: > 10 µM | solubility thermodynamic at 24 h [1]: < 2 µM

C[C@]1(CS(=O)(=O)N2CCC(Oc3ccc(OCc4ccc(C(F)(F)F)o4)cc3)CC2)NC(=O)NC1=O
IC50 [12]: 1.86 µM
